Test results taken from patent US8658675B2, “Pyridin-4-yl derivatives” (Actelion Pharmaceuticals Ltd., priority 2009, dated 2014).

How the values were obtained:
rat trachea rings = assay: Measurement of isometric force development: rat trachea ring constriction; parameters: species or system Female Wistar rats; details: for % trachea constriction at 1 μM: compound at 1 μM, in % of the constriction induced by 50 mM KCl; for potential to constrict rat trachea rings (comparison in words): compared to closest prior art analogues of WO 2008/029371 or to Example 2
Description: Animals were obtained from RCC Ltd (Füllinsdorf, Switzerland). Female Wistar rats were euthanized by exposure to CO2. The tracheae were excised and rings from the lower segments were prepared. Rings of trachea were suspended in tissue baths (10 mL) containing Krebs-Henseleit buffer of the following composition (mM): NaCl 115; KCl 4.7; MgSO4 1.2; KH2PO4 1.5; CaCl2 2.5; NaHCO3 25; glucose 10. Bathing solution was maintained at 37° C. and aerated with 95% O2/5% CO2 (pH 7.4). A resting force of 2 g (20 mN) was applied to the ring preparation, and changes in force generation were measured using an isometric force recorder (EMKA Technologies Inc, Paris, France). Viability of rings was assessed by exposure to a depolarizing concentration of KCl (50 mM). Contraction of trachea was expressed as a percentage of the response to KCl.
All compounds were prepared as stock solutions of 0.3 mM in pure DMSO. Compounds were added to the bath (10 mL) in a volume of 33 μL to give a final bath concentration of DMSO of 0.33%.
Contraction of trachea was measured for 15 out of 30 exemplified compounds.

circulating lymphocytes = assay: Assessment of in vivo efficacy: circulating lymphocytes after oral administration; parameters: species or system normotensive male Wistar rats; details: Rattus norvegicus, Lymphocyte; 6 h after oral administration of 10 mg/kg, male Wistar rats, compared to vehicle group; read-out: Lymphocyte counts
Description: The efficacy of the compounds of Formula (I) is assessed by measuring the circulating lymphocytes after oral administration of 3 to 30 mg/kg of a compound of Formula (I) to normotensive male Wistar rats. The animals are housed in climate-controlled conditions with a 12 h-light/dark cycle, and have free access to normal rat chow and drinking water. Blood is collected before and 3, 6 and 24 h after drug administration. Full blood is subjected to hematology using Advia Hematology system (Bayer Diagnostics, Zurich, Switzerland).
All data are presented as mean±SEM. Statistical analyses are performed by analysis of variance (ANOVA) using Statistica (StatSoft) and the Student-Newman-Keuls procedure for multiple comparisons. The null hypothesis is rejected when p<0.05.
Lymphocyte counts 6 h after oral administration have been measured for 23 out of 30 exemplified compounds and are in the range of −42% to −80% with an average of −63%.

human S1P1 receptor = human S1P1 receptor (Homo sapiens, UniProt P21453); assay: GTPγS assay to determine EC50 values; type: biochemical; details: membranes of CHO cells expressing recombinant human S1P1 receptor; 35S-GTPγS binding
Description: GTPγS binding assays are performed in 96 well microtiter plates (Nunc, 442587) in a final volume of 200 μl, using membrane preparations of CHO cells expressing recombinant human S1P1 receptor. Assay conditions are 20 mM Hepes (Fluka, 54461), 100 mM NaCl (Fluka, 71378), 5 mM MgCl2 (Fluka, 63064), 0.1% BSA (Calbiochem, 126609), 1 μM GDP (Sigma, G-7127), 2.5% DMSO (Fluka, 41644), […] ^35S-GTPγS (Amersham Biosciences, SJ1320). The pH is 7.4. Test compounds are dissolved and diluted in 100% DMSO and pre-incubated at room temperature for 30 min in 150 μl of the above assay buffer, in the absence of ^35S-GTPγS. After addition of 50 μl of ^35S-GTPγS, the assay is incubated for 1 h at rt. The assay is terminated by transfer of the reaction mixture to a Multiscreen plate (Millipore, MAHFC1H60) using a cell harvester from Packard Biosciences, and the plates are washed with ice-cold 10 mM Na2HPO4/NaH2PO4 (70%/30%), dried, sealed at the bottom and, after addition of 25 μl MicroScint20 (Packard Biosciences, order#6013621), sealed on the top. Membrane-bound ^35S-GTPγS is measured with a TopCount from Packard Biosciences.
EC50 is the concentration of agonist inducing 50% of the maximal specific ^35S-GTPγS binding. Specific binding is determined by subtracting non-specific binding from maximal binding. Maximal binding is the amount of cpm bound to the Multiscreen plate in the presence of 10 μM of S1P. Non-specific binding is the amount of binding in the absence of an agonist in the assay.
Agonistic activities (EC50 values) of all exemplified compounds have been measured.

Sequence of human S1P1 receptor (P21453 whole entry): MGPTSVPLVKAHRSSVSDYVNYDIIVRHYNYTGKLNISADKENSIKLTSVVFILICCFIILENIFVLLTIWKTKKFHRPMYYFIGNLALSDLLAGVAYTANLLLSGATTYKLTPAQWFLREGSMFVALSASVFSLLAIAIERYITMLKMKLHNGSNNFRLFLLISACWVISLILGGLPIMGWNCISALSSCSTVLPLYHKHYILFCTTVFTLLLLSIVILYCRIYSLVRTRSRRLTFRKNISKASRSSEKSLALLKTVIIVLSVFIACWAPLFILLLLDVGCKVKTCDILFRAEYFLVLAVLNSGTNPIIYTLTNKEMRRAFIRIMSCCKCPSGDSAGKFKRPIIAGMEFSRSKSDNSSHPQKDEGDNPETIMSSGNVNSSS

| Structure (SMILES) | % trachea constriction at 1 μM (rat trachea rings) | EC50 (human S1P1 receptor) | change in vivo at 10 mg/kg (circulating lymphocytes) | potential to constrict rat trachea rings (comparison in words) (rat trachea rings) |
| --- | --- | --- | --- | --- |
| CCc1cc(-c2noc(-c3cc(OC)nc(C4CCCC4)c3)n2)cc(C)c1OC[C@@H](O)CNC(=O)CO [Example 7, N-((2S)-3-{4-[5-(2-Cyclopentyl-6-methoxy-pyridin-4-yl)-[1,2,4]oxadiazol-3-yl]-2-ethyl-6-methyl-phenoxy}-2-hydroxy-propyl)-2-hydroxy-acetamide] | 50% | 0.6 nM | -65% | markedly reduced potential to constrict rat trachea rings |
| CCc1cc(-c2noc(-c3cc(OC)nc(C4CCCCC4)c3)n2)cc(C)c1OC[C@@H](O)CO [Example 4, (S)-3-{4-[5-(2-Cyclohexyl-6-methoxy-pyridin-4-yl)-[1,2,4]oxadiazol-3-yl]-2-ethyl-6-methyl-phenoxy}-propane-1,2-diol] | <5% | 6.4 nM | -61% |  |
| COc1cc(-c2nc(-c3cc(C)c(NS(C)(=O)=O)c(Cl)c3)no2)cc(C2CCCCC2)n1 [Example 17, N-{2-Chloro-4-[5-(2-cyclohexyl-6-methoxy-pyridin-4-yl)-[1,2,4]oxadiazol-3-yl]-6-methyl-phenyl}-methanesulfonamide] |  | 10.2 nM | -80% |  |
| CCc1cc(-c2nc(-c3cc(OC)nc(C4CCCC4)c3)no2)cc(C)c1OC[C@@H](O)CO [Example 21, (S)-3-{4-[3-(2-Cyclopentyl-6-methoxy-pyridin-4-yl)-[1,2,4]oxadiazol-5-yl]-2-ethyl-6-methyl-phenoxy}-propane-1,2-diol] | <5% | 0.7 nM | -62% | same low potential to constrict rat trachea rings |
| CCc1cc(-c2noc(-c3cc(CCC(C)C)nc(OC)c3)n2)cc(C)c1OC[C@@H](O)CO [Example 15, (S)-3-(2-Ethyl-4-{5-[2-methoxy-6-(3-methyl-butyl)-pyridin-4-yl]-[1,2,4]oxadiazol-3-yl}-6-methyl-phenoxy)-propane-1,2-diol] |  | 7.5 nM |  |  |
| CCC(CC)c1cc(-c2nc(-c3cc(C)c(NS(C)(=O)=O)c(Cl)c3)no2)cc(OC)n1 [Example 11, N-(2-Chloro-4-{5-[2-(1-ethyl-propyl)-6-methoxy-pyridin-4-yl]-[1,2,4]oxadiazol-3-yl}-6-methyl-phenyl)-methanesulfonamide] |  | 1.2 nM | -74% |  |
| CCS(=O)(=O)Nc1c(C)cc(-c2noc(-c3cc(OC)nc(C4CCCC4)c3)n2)cc1Cl [Example 5, Ethanesulfonic acid {2-chloro-4-[5-(2-cyclopentyl-6-methoxy-pyridin-4-yl)-[1,2,4]oxadiazol-3-yl]-6-methyl-phenyl}-amide] |  | 1.8 nM | -66% |  |
| COc1cc(-c2nc(-c3cc(C)c(OC[C@@H](O)CNC(=O)CO)c(Cl)c3)no2)cc(C2CCCC2)n1 [Example 14, N-((2S)-3-{2-Chloro-4-[5-(2-cyclopentyl-6-methoxy-pyridin-4-yl)-[1,2,4]oxadiazol-3-yl]-6-methyl-phenoxy}-2-hydroxy-propyl)-2-hydroxy-acetamide] |  | 1.1 nM | -70% |  |
| CCc1cc(-c2noc(-c3cc(OC)nc(C4CCCCC4)c3)n2)cc(C)c1NS(C)(=O)=O [Example 20, N-{4-[5-(2-Cyclohexyl-6-methoxy-pyridin-4-yl)-[1,2,4]oxadiazol-3-yl]-2-ethyl-6-methyl-phenyl}-methanesulfonamide] |  | 4.2 nM | -67% |  |
| CCc1cc(-c2noc(-c3cc(OC)nc(C(CC)CC)c3)n2)cc(C)c1OC[C@@H](O)CN(C)C(=O)CO [Example 9, N-[(2S)-3-(2-Ethyl-4-{5-[2-(1-ethyl-propyl)-6-methoxy-pyridin-4-yl]-[1,2,4]oxadiazol-3-yl}-6-methyl-phenoxy)-2-hydroxy-propyl]-2-hydroxy-N-methyl-acetamide] |  | 17.8 nM |  |  |

Continued, in another order:

| % trachea constriction at 1 μM (rat trachea rings) | EC50 (human S1P1 receptor) | Structure (SMILES) | change in vivo at 10 mg/kg (circulating lymphocytes) | potential to constrict rat trachea rings (comparison in words) (rat trachea rings) |
| --- | --- | --- | --- | --- |
| 53% | 1.9 nM | CCc1cc(-c2nnc(-c3cc(OC)nc(C4CCCC4)c3)o2)cc(C)c1OC[C@@H](O)CO [Example 25, (S)-3-{4-[5-(2-Cyclopentyl-6-methoxy-pyridin-4-yl)-[1,3,4]oxadiazol-2-yl]-2-ethyl-6-methyl-phenoxy}-propane-1,2-diol] | -51% |  |
|  | 4 nM | CCc1cc(-c2nnc(-c3cc(OC)nc(C4CCCC4)c3)o2)cc(C)c1OC[C@H](O)CO [Example 26, (R)-3-{4-[5-(2-Cyclopentyl-6-methoxy-pyridin-4-yl)-[1,3,4]oxadiazol-2-yl]-2-ethyl-6-methyl-phenoxy}-propane-1,2-diol] |  |  |
|  | 2.3 nM | CCc1cc(-c2nnc(-c3cc(OC)nc(C4CCCC4)c3)o2)cc(C)c1OC[C@H](O)CNC(=O)CO [Example 28, N-((2R)-3-{4-[5-(2-Cyclopentyl-6-methoxy-pyridin-4-yl)-[1,3,4]oxadiazol-2-yl]-2-ethyl-6-methyl-phenoxy}-2-hydroxy-propyl)-2-hydroxy-acetamide] |  |  |
|  | 1.7 nM | CCc1cc(-c2nnc(-c3cc(OC)nc(C4CCCC4)c3)o2)cc(C)c1OC[C@@H](O)CNC(=O)CO [Example 27, N-((2S)-3-{4-[5-(2-Cyclopentyl-6-methoxy-pyridin-4-yl)-[1,3,4]oxadiazol-2-yl]-2-ethyl-6-methyl-phenoxy}-2-hydroxy-propyl)-2-hydroxy-acetamide] | -54% |  |
|  | 1 nM | CCc1cc(-c2nc(-c3cc(OC)nc(C4CCCC4)c3)no2)cc(C)c1OC[C@H](O)CO [Example 22, (R)-3-{4-[3-(2-Cyclopentyl-6-methoxy-pyridin-4-yl)-[1,2,4]oxadiazol-5-yl]-2-ethyl-6-methyl-phenoxy}-propane-1,2-diol] |  |  |
|  | 1.6 nM | CCc1cc(-c2nc(-c3cc(OC)nc(C4CCCC4)c3)no2)cc(C)c1OC[C@H](O)CNC(=O)CO [Example 24, N-((2R)-3-{4-[3-(2-Cyclopentyl-6-methoxy-pyridin-4-yl)-[1,2,4]oxadiazol-5-yl]-2-ethyl-6-methyl-phenoxy}-2-hydroxy-propyl)-2-hydroxy-acetamide] |  |  |
|  | 5.6 nM | CCc1cc(-c2noc(-c3cc(CCC(C)C)nc(OC)c3)n2)cc(C)c1NS(C)(=O)=O [Example 30, N-(2-Ethyl-4-(5-(2-isopentyl-6-methoxypyridin-4-yl)-1,2,4-oxadiazol-3-yl)-6-methylphenyl)methanesulfonamide] |  |  |
|  | 0.4 nM | CCc1cc(-c2nc(-c3cc(OC)nc(C4CCCC4)c3)no2)cc(C)c1OC[C@@H](O)CNC(=O)CO [Example 23, N-((2S)-3-{4-[3-(2-Cyclopentyl-6-methoxy-pyridin-4-yl)-[1,2,4]oxadiazol-5-yl]-2-ethyl-6-methyl-phenoxy}-2-hydroxy-propyl)-2-hydroxy-acetamide] | -56% |  |
|  | 4 nM | COc1cc(-c2nc(-c3cc(C)c(OC[C@@H](O)CO)c(Cl)c3)no2)cc(C2CCCCC2)n1 [Example 29, (S)-3-{2-Chloro-4-[5-(2-cyclohexyl-6-methoxy-pyridin-4-yl)-[1,2,4]oxadiazol-3-yl]-6-methyl-phenoxy}-propane-1,2-diol] | -62% |  |
